ChEMBL document CHEMBL2074370, “Are MDCK cells transfected with the human MDR1 gene a good model of the human intestinal mucosa?” (Pharm Res, 2002)
pKi: −log10 of the molar value.

Legend:
[1] = target: ATP-dependent translocase ABCB1 (Homo sapiens, UniProt P08183); assay: TP_TRANSPORTER: inhibition of Digoxin transepithelial transport (basal to apical) in MDR1-expressing MDCK cells; format: functional, cell-based
[2] = system: CC[C@]1(O)C[C@@H]2CN(CCc3c([nH]c4ccccc34)[C@@](C(=O)OC)(c3cc4c(cc3OC)N(C)[C@H]3[C@@](O)(C(=O)OC)[C@H](OC(C)=O)[C@]5(CC)C=CCN6CC[C@]43[C@@H]65)C2)C1; assay: TP_TRANSPORTER: transepithelial transport (basal to apical) in MDR1-expressing MDCK cells; format: functional, cell-based

ATP-dependent translocase ABCB1, sequence (P08183 whole entry): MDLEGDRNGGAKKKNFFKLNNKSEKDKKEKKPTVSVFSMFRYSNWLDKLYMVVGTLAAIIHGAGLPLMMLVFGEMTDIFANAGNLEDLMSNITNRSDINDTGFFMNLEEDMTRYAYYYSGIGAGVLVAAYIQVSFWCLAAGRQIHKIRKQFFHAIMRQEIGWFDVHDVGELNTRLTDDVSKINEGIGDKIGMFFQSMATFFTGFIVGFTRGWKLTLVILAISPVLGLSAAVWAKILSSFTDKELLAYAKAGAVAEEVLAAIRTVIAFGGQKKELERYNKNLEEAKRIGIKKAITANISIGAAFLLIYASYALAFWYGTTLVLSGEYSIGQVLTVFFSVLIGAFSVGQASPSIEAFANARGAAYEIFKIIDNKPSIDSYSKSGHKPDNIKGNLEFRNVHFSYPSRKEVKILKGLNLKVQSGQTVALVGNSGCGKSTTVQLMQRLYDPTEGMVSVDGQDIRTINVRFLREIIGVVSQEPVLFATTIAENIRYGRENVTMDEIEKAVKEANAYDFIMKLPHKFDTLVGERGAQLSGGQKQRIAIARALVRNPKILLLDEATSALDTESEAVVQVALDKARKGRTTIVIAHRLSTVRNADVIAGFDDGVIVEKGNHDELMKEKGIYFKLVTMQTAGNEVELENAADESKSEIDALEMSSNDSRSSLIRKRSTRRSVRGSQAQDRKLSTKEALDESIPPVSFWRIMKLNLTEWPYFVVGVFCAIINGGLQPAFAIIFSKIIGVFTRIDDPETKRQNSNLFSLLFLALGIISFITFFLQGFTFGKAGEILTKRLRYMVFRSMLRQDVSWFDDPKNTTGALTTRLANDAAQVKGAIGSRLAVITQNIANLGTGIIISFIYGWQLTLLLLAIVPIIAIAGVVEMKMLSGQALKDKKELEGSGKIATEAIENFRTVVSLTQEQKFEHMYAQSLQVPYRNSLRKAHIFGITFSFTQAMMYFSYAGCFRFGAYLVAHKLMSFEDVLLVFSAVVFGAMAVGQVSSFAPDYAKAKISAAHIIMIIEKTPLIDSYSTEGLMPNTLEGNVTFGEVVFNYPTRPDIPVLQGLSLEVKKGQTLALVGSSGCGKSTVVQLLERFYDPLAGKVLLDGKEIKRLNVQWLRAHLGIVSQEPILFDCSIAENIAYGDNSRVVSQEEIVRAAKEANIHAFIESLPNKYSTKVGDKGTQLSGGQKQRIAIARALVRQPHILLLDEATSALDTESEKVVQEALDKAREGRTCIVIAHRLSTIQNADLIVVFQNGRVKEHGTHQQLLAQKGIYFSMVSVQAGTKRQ

**Q.** With CC[C@]1(O)C[C@H]2CN(CCc3c([nH]c4ccccc34)[C@@](C(=O)OC)(c3cc4c(cc3OC)N(C=O)[C@H]3[C@@](O)(C(=O)OC)[C@H](OC(C)=O)[C@]5(CC)C=CCN6CC[C@]43[C@@H]65)C2)C1 [VINCRISTINE] as the compound, how does the pKi [1] read?
**A.** The pKi was 3.67.

**Q.** COc1cccc2c1C(=O)c1c(O)c3c(c(O)c1C2=O)C[C@@](O)(C(C)=O)C[C@@H]3O[C@H]1C[C@H](N)[C@H](O)[C@H](C)O1 [DAUNORUBICIN] was tested. Which pKi [1] did it give?
**A.** The pKi was 3.95.

**Q.** How did the pKi [1] turn out when COC(=O)[C@H]1[C@H]2C[C@@H]3c4[nH]c5cc(OC)ccc5c4CCN3C[C@H]2C[C@@H](OC(=O)c2cc(OC)c(OC)c(OC)c2)[C@@H]1OC [RESERPINE] was run?
**A.** Its pKi is 4.94.

**Q.** With “ATP-dependent translocase ABCB1 (Homo sapiens)” as the compound, how does the Km [2] read?
**A.** Its Km is 253 µM.
